Measured values as given in patent publication US20070088052A1, “Sulfonamide derivatives as 5ht7 receptor antagonists” (Aston University, priority 2003, published 2007).
Marks after values point to notes of the source that are not given here.

Experiments:
5-HT7 receptor = molecular target: T1, 5-HT7 receptor (Homo sapiens, UniProt P34969); test: Receptor binding assay, [3]H-5-CT; conditions: for 5HT-7 receptor binding data using [3]H-5-CT: stepwise screen from 10 μM, active samples diluted and re-screened, radioligand 25 pM, dropout < 35; for IC50: [3]H-5-CT binding
T1 construct: Tissues were homogenized in ice cold sucrose; from tissue; host or cells: unspecified tissue, membrane homogenate
Method: Receptor Binding Assay, ^[3]H-5-CT
The combinatorial library was screened using radiolabeled 5-carboxamidotryptamine, a selective 5-HT-7 agonist. Tissues were homogenized in ice cold sucrose (0.32 M, 25 ml) for 15 strokes at 500 rpm and centrifuged at 13000 rpm for 10 mins. The supernatant was re-centrifuged at 13000 rpm for 20 mins. The resulting pellet was re-dispersed to the required volume of buffer at 500 rpm and stored in aliquots at […].
Binding was achieved using radioligand 5-carboxamidotryptamine at 25 pM. The samples were incubated {with membranes (0.1 mg/ml)} in 20 mM Hepes, 1 mM EGTA, 5 mM MgCl2, 150 mM NaCl, at pH 6.5 for 2 hrs at RT and then centrifuged at 11000 rpm for 5 minutes. The membrane pellets were washed twice with water and the bound radioactivity was measured in a Packard Cobra Auto-gamma counter (B5005). All binding assays were carried out with SB-258719 as standard. Controls (no compound) were also added. All samples were made in duplicate and repeated twice. All compounds were initially screened for percentage inhibition at 10 μM. Samples showing an average inhibition of […] were diluted to 1 μM and re-screened and if active diluted again.

mice [1] = test: Despair swim test (immobility time test); type: in vivo; conditions: immobility in 5 min test, drug one hour prior
Source text: Despair Swim Test (Immobility Time Test)
This reflects a state of despair, which can be reduced by several agents, which are therapeutically effective in human depression. Antidepressant drugs have the effect of reducing the duration of immobility.
Mice were brought into the laboratory at least one day before the experiment and were housed in separate cages, with free access to food and water. The mice were individually forced to swim inside a vertical Plexiglas cylinder (height: 40 cm; diameter: 18 cm, containing 15 cm of water maintained at 30° C.). After 10 min in the water the mice were removed and allowed to dry in a heated enclosure (32° C.) before being returned to their home cages. They were again replaced in the cylinder 24 hrs later and the total duration of the immobility was measured during a 5 min test. Floating behaviour during this 5 min period was reproducible in different groups of mice. An animal was judged to be immobile whenever it remained floating passively in the water in a slightly hunched but upright position, its nose just above the surface. The test drug or the standard were administered one hour prior to testing.

mice [2] = test: Tail suspension test; type: in vivo; conditions: interperitoneal 30 min prior, immobility over 5 minutes
Method: Male mice weighting 20-25 g were used preferentially. The were housed in plastic cages for at least 10 days prior to testing in a 12 hours light cycle with food and water freely available.
Animals were transported from the housing room to the testing area in their own cages and were allowed to adapt to the new environment for 1 hour before testing. Groups of 6 animals were treated with the test compounds or the vehicle by interperitoneal injection 30 min prior to testing. For the test the mice were suspended on the edge of a shelf 58 cm above a table top by adhesive tape, placed approximately 1 cm from the tip of the tail. The duration of immobility was recorded for a period of 5 minutes. Mice were considered immobile when they hang passively and the time was recorded.

T1 sequence (P34969 whole entry): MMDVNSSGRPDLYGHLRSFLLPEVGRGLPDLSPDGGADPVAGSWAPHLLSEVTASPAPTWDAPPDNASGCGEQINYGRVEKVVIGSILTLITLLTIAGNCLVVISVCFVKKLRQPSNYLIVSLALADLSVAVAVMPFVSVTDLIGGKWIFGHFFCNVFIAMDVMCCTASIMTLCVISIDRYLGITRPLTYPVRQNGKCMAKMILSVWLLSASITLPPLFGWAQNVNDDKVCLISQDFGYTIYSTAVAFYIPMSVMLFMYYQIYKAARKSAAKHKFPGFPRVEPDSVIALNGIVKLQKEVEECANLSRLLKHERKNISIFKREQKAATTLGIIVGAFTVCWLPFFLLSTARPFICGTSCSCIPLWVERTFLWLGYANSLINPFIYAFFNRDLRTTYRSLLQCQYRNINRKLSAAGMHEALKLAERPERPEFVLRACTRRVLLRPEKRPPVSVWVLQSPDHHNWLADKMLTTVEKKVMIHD

Compound: Cc1cccc(S(=O)(=O)N(CCN(C)C)C(C)CCN2CCC(C)CC2)c1 (centres unmarked) [B9]
- 5HT-7 receptor binding data using [3]H-5-CT (5-HT7 receptor): B9 * (1 micromolar)

Compound: COc1ccccc1N(C(C)CCN1CCC(C)CC1)S(=O)(=O)c1cccc(C)c1 (centres unmarked) [B16]
- 5HT-7 receptor binding data using [3]H-5-CT (5-HT7 receptor): B16 ** (100 nM)

Compound: COc1cccc(N(C(C)CCN2CCC(C)CC2)S(=O)(=O)c2cccc(C)c2)c1 (centres unmarked) [B23]
- 5HT-7 receptor binding data using [3]H-5-CT (5-HT7 receptor): B23 *** (10 nM)

Compound: COc1ccc(S(=O)(=O)N(c2ccc(Cl)cc2)C(C)CCN2CCC(C)CC2)cc1 (centres unmarked) [C6]
- 5HT-7 receptor binding data using [3]H-5-CT (5-HT7 receptor): C6 ** (100 nM)

Compound: COc1ccc(S(=O)(=O)N(c2cccc3ccccc23)C(C)CCN2CCC(C)CC2)cc1 (centres unmarked) [C24]
- 5HT-7 receptor binding data using [3]H-5-CT (5-HT7 receptor): C24 * (1 micromolar)

Compound: CC1CCN(CCC(C)N(Cc2ccccc2)S(=O)(=O)c2cccc3ccccc23)CC1 (centres unmarked) [D1]
- 5HT-7 receptor binding data using [3]H-5-CT (5-HT7 receptor): D1 * (1 micromolar)

Compound: CC1CCN(CCC(C)N(c2ccccn2)S(=O)(=O)c2cccc3ccccc23)CC1 (centres unmarked) [D13]
- 5HT-7 receptor binding data using [3]H-5-CT (5-HT7 receptor): D13 ** (100 nM)

Compound: COc1cccc(N(C(C)CCN2CCC(C)CC2)S(=O)(=O)c2cccc3ccccc23)c1 (centres unmarked) [D23]
- IC50 (5-HT7 receptor): 34 nM
- 5HT-7 receptor binding data using [3]H-5-CT (5-HT7 receptor): D23 *** (10 nM)

Compound: CC1CCN(CCC(C)N(Cc2ccccc2)S(=O)(=O)c2ccc3ccccc3c2)CC1 (centres unmarked) [E1]
- 5HT-7 receptor binding data using [3]H-5-CT (5-HT7 receptor): E1 * (1 micromolar)

Compound: COCCN(C(C)CCN1CCC(C)CC1)S(=O)(=O)c1ccc2ccccc2c1 (centres unmarked) [E3]
- 5HT-7 receptor binding data using [3]H-5-CT (5-HT7 receptor): E3 * (1 micromolar)

Compound: CCCCCCCCCCCCN(C(C)CCN1CCC(C)CC1)S(=O)(=O)Cc1ccccc1 (centres unmarked) [G10]
- 5HT-7 receptor binding data using [3]H-5-CT (5-HT7 receptor): G10 * (1 micromolar)

Compound: CC(=O)c1ccc(N(C(C)CCN2CCC(C)CC2)S(=O)(=O)Cc2ccccc2)cc1 (centres unmarked) [G22]
- 5HT-7 receptor binding data using [3]H-5-CT (5-HT7 receptor): G22 * (1 micromolar)

Compound: COc1cccc(N(C(C)CCN2CCC(C)CC2)S(=O)(=O)Cc2ccccc2)c1 (centres unmarked) [G23]
- 5HT-7 receptor binding data using [3]H-5-CT (5-HT7 receptor): G23 *** (10 nM)

Compound: CC1CCN(CCC(C)N(c2cccc3ccccc23)S(=O)(=O)Cc2ccccc2)CC1 (centres unmarked) [G24]
- 5HT-7 receptor binding data using [3]H-5-CT (5-HT7 receptor): G24 * (1 micromolar)

Compound: CC1CCN(CCC(C)N(Cc2ccccc2)S(=O)(=O)c2cccc([N+](=O)[O-])c2)CC1 (centres unmarked) [I1]
- 5HT-7 receptor binding data using [3]H-5-CT (5-HT7 receptor): I1 ** (100 nM)

Compound: CC1CCN(CCC(C)N(C)S(=O)(=O)c2cccc([N+](=O)[O-])c2)CC1 (centres unmarked) [I8]
- 5HT-7 receptor binding data using [3]H-5-CT (5-HT7 receptor): I8 ** (100 nM)

Compound: CC1CCN(CCC(C)N(c2ccccc2)S(=O)(=O)c2cccc([N+](=O)[O-])c2)CC1 (centres unmarked) [I21]
- 5HT-7 receptor binding data using [3]H-5-CT (5-HT7 receptor): I21 ** (100 nM)

Compound: COc1cccc(N(C(C)CCN2CCC(C)CC2)S(=O)(=O)c2cccc([N+](=O)[O-])c2)c1 (centres unmarked) [I23]
- 5HT-7 receptor binding data using [3]H-5-CT (5-HT7 receptor): I23 ** (100 nM)

Compound: CC1CCN(CCC(C)N(c2cccc3ccccc23)S(=O)(=O)c2cccc([N+](=O)[O-])c2)CC1 (centres unmarked) [I24]
- 5HT-7 receptor binding data using [3]H-5-CT (5-HT7 receptor): I24 *** (10 nM)

Compound: Cc1ccc(N(C(C)CCN2CCC(C)CC2)S(=O)(=O)c2ccc(-c3ccccc3)cc2)cc1 (centres unmarked) [J20]
- IC50 (5-HT7 receptor): 61 nM
- 5HT-7 receptor binding data using [3]H-5-CT (5-HT7 receptor): J20 *** (10 nM)
- Forced swim test (mice [1]; 1 mg/kg): 42 ± 6 s
- Forced swim test (mice [1]; 5 mg/kg): 28 ± 4 s
- Tail suspension (mice [2]; 1 mg/kg): 130 ± 11 s
- Tail suspension (mice [2]; 5 mg/kg): 92 ± 9 s

Compound: COc1cccc(N(C(C)CCN2CCC(C)CC2)S(=O)(=O)c2ccc(-c3ccccc3)cc2)c1 (centres unmarked) [J23]
- IC50 (5-HT7 receptor): 39 nM
- 5HT-7 receptor binding data using [3]H-5-CT (5-HT7 receptor): J23 *** (10 nM)

Compound: CC1CCN(CCC(C)N(CCN(C)C)S(=O)(=O)c2ccc(Br)cc2)CC1 (centres unmarked) [M9]
- 5HT-7 receptor binding data using [3]H-5-CT (5-HT7 receptor): M9 * (1 micromolar)

Compound: COCCN(C(C)CCN1CCC(C)CC1)S(=O)(=O)c1cccc(C(F)(F)F)c1 (centres unmarked) [N3]
- 5HT-7 receptor binding data using [3]H-5-CT (5-HT7 receptor): N3 ** (100 nM)

Compound: COc1ccccc1N(C(C)CCN1CCC(C)CC1)S(=O)(=O)c1cccc(C(F)(F)F)c1 (centres unmarked) [N16]
- 5HT-7 receptor binding data using [3]H-5-CT (5-HT7 receptor): N16 ** (100 nM)

Compound: Cc1ccc(N(C(C)CCN2CCC(C)CC2)S(=O)(=O)c2cccc(C(F)(F)F)c2)cc1 (centres unmarked) [N20]
- 5HT-7 receptor binding data using [3]H-5-CT (5-HT7 receptor): N20 ** (100 nM)

Compound: COc1ccc(S(=O)(=O)N(c2cccc3ccccc23)C(C)CCN2CCC(C)CC2)cc1OC (centres unmarked) [O24]
- IC50 (5-HT7 receptor): 83 nM
- 5HT-7 receptor binding data using [3]H-5-CT (5-HT7 receptor): O24 *** (10 nM)
- Forced swim test (mice [1]; 1 mg/kg): 69 ± 7 s
- Forced swim test (mice [1]; 5 mg/kg): 51 ± 11 s
- Tail suspension (mice [2]; 1 mg/kg): 81 ± 8 s
- Tail suspension (mice [2]; 5 mg/kg): 74 ± 9 s
